Measured values published in US12275687B2 (priority 2017, dated 2025).

Legend:
[1] = biological target: BLT1-T4L; experiment: Saturation binding of ^3H-LTB4, BLT1-T4L expressed in P. pastoris (membrane fraction); set-up: species or system guinea pig; settings: saturation binding of ^3H-LTB4, ICL3-10 construct
Source text: (§1) For the ligand binding assay of BLT1-T4Ls, the T4L cDNA was integrated into the cDNA, encoding the newly generated thermostable BLT1 mutant with the additional mutation V212A, by the consensus method (residues 1-14 deleted and H83G/K88G/V212A/S309A mutations), with the α-factor PrePro signal sequence and the FLAG tag at the N-terminal, and the PreScission site and the His6 tag at the C-terminal of BLT1 (Hori T. et al., 2010, supra) in the pPIC3.5K vector, using the In-Fusion enzyme (FIG. 7A). The expression vectors were introduced into the yeast Pichia pastoris using an EasyComp kit (Thermo Fisher Scientific). BLT1-T4Ls were expressed in 10 ml cultures, and the membrane fraction was prepared as described previously (Hori T. et al., 2010, supra; Hon T. et al., 2015, supra).
(§2) For the evaluation of the ligand-binding activity of the BLT1 mutants and BLT1-T4Ls, a ^3H-LTB4 binding assay was performed using the BLT1-expressing membrane fractions of COS-7, HEK293, or P. pastoris cells, as described previously (Hori T. et al., 2010, supra; Hori T. et al., 2015, supra). For the evaluation of the thermostability, the membrane fraction was heat-treated before the ^3H-LTB4 binding assay.

[2] = biological target: T1, BLT1 (Cavia porcellus, UniProt H0VYV8); experiment: Saturation binding assay of ^3H-LTB4 and BLT1 with various concentrations of benzamidine; set-up: expressed in transfected cells; host or cells: HEK293 (membrane fraction); species or system guinea pig
Description: Each point (±s.e.m.) indicates the mean value of three independent experiments, each with triplicate reactions. […] Each point (±s.e.m.) indicates the mean value of three independent experiments, each with triplicate reactions. […] Each point (±s.e.m.) indicates the mean value of triplicate reactions. For the evaluation of the ligand-binding activity of the BLT1 mutants and BLT1-[…], a ^3H-LTB4 binding assay was performed using the BLT1-expressing membrane fractions of COS-7, HEK293, or P. pastoris cells, as described previously (Hori T. et al., 2010, supra; Hori T. et al., 2015, supra). For the evaluation of the thermostability, the membrane fraction was heat-treated before the ^3H-LTB4 binding assay.

[3] = biological target: T1, BLT1; experiment: TGFα shedding assay with benzamidine (G-protein activation by LTB4); format: cell-based; set-up: expressed in transfected cells; settings: for logτA: agonist signaling efficacy; for KA / logKA: equilibrium dissociation constant of LTB4; for logKA: log value as printed; for Em: maximum possible signal response; for logβ / β: LTB4-induced efficacy modulation by benzamidine
Description: Each point (±s.e.m.) indicates the mean value of three independent experiments, each with triplicate reactions. […] Each point (±s.e.m.) indicates the mean value of three independent experiments, each with triplicate reactions. […] Each point (±s.e.m.) indicates the mean value of triplicate reactions. […] To determine the parameters, three steps of fitting procedures were performed.

[4] = biological target: BLT1-T4L; experiment: Competition assay of ligands against ^3H-LTB4, BLT1-T4L expressed in P. pastoris; format: binding, guinea pig
Source text: as §1, §2

[5] = biological target: T2, wild-type BLT1 (Cavia porcellus, UniProt H0VYV8); experiment: Competition binding assay of benzamidine and NaCl to 0.5 nM ^3H-LTB4 (allosteric modulation titration analysis); set-up: species or system guinea pig
T2 construct: expressed in transfected cells; host or cells: HEK293 (membrane fraction)
Source text: Each point (±s.e.m.) indicates the mean value of three independent experiments, each with triplicate reactions. […] Each point (±s.e.m.) indicates the mean value of three independent experiments, each with triplicate reactions. […] Each point (±s.e.m.) indicates the mean value of triplicate reactions. For the evaluation of the thermostabilities of guinea pig BLT1 mutants designed by the consensus method (FIG. 8A), point mutations were introduced using a QuikChange kit (Agilent) to the previously constructed thermostabilized BLT1 […] deleted, […] mutations, and an N-terminal FLAG-tag) in the pcDNA3 vector (Hori, T. et al., Protein Expr. Purif. 72 (2010) 66-74; Hori, T. et al., Biochem. Biophys. Rep. 4 (2015) 243-249). The expression vectors encoding the BLT1 mutants were transfected into COS-7 cells with Lipofectamine 2000. For the analysis of the BIIL260 binding residues of BLT1, point mutations were introduced, using the In-Fusion enzyme (Clontech), into the wild-type BLT1 cDNA with the N-terminal FLAG-tag in the pcDNA3 vector. The expression vectors were transfected into HEK293 cells, using polyethyleneimine. […] The BLT1 mutants were transiently expressed for three days at 37° C. The cells were washed with PBS, harvested with PBS-EDTA, disrupted with a sonicator, and centrifuged at 800×g for 5 min. The supernatant was further ultra-centrifuged at 100,000×g for 60 min, and the precipitate was collected. For the evaluation of the ligand-binding activity of the BLT1 mutants and BLT1-[…], a ^3H-LTB4 binding assay was performed using the BLT1-expressing membrane fractions of COS-7, HEK293, or P. pastoris cells, as described previously (Hori T. et al., 2010, supra; Hori T. et al., 2015, supra). For the evaluation of the thermostability, the membrane fraction was heat-treated before the ^3H-LTB4 binding assay. […] For all of the pharmacological analyses, nonlinear regression curve fitting was performed using Prism 5 (Graph Pad Software).

[6] = cooperative factor between ^3H-LTB4 and the modulator
[7] = saturation binding, global fitting

T2 sequence (H0VYV8 1-348): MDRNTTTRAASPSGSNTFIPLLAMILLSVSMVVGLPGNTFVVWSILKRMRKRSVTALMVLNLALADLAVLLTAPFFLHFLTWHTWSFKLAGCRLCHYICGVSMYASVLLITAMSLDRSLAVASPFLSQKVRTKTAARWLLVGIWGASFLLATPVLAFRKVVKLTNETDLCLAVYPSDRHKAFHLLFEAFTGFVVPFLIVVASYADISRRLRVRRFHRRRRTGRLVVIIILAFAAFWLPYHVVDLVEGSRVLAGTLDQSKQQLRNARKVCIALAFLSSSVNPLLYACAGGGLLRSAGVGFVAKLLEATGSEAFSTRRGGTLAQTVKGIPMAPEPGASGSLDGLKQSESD
T1 sequence (H0VYV8 1-348): as above

`CCCCC/C=C\C[C@@H](O)/C=C/C=C/C=C\[C@@H](O)CCCC(=O)O` [LTB4, leukotriene B4] gave a Kd [1] of 1.2 ± 0.1 nM, a Kd ([2]; equilibrium dissociation constant of ^3H-LTB4, global fitting with benzamidine) of 0.6 nM and a logτA ([3]; G16, Em = 20) of 0.076. For the same compound, the KA ([3]; G16) was “(KA = 9.2 nM)”, the logKA ([3]; G16) was −8.0 and the Em ([3]; G16) was 27.6. For the same compound, the logτA ([3]; Gq/i1, in n = 1, Em = 25) was 0.82, the KA ([3]; Gq/i1) was “(KA = 24 nM)” and the logKA ([3]; Gq/i1) was −7.6. It also gave an Em ([3]; Gq/i1) of 26.7, a Ki [4] of 0.67 nM and a logIC50 ([4]; log value (negative)) of −9.0.

In the case of `N=C(N)c1ccccc1` [Benzamidine, benzamidine], the “level of the LTB4-BLT1 binding” value ([5]; FIG. 3A) is reported as “decreased the level of the LTB4-BLT1 binding in a benzamidine concentration-dependent manner”, the “suppression of the BLT1-LTB4 binding compared with the sodium ion” value ([5]; FIG. 3A) is reported as “more potently than the sodium ion, by one order of magnitude” and the logα [5, 6] is reported as −0.82. The α [5, 6] was “(α = 0.15)”, the “binding affinity of LTB4 toward BLT1” value ([2]; FIG. 3B) was “lowered” and the logα [2, 7] was −0.93. The α [2, 7] was “(α = 0.12)”, the “BLT1-LTB4-mediated Gq/il and G16 activation” value ([3]; FIGS. 3C and 3D) was “decreased” and the logα ([3]; G16) was −0.45. For the same compound, the α ([3]; G16) was “(α = 0.36)”, the logβ ([3]; G16) was −1.6 and the β ([3]; G16) was “(β = 0.03)”. For the same compound, the logα ([3]; Gq/i1) was 0.00, the α ([3]; Gq/i1) was “(α = 1.00)” and the logβ ([3]; Gq/i1) was −1.9. The β ([3]; Gq/i1) was “(β = 0.01)”, the “cooperative factor of the LTB4-induced efficacy modulation (β)” value ([3]; as a whole) was < 1 and the “cooperative factor of the binding of LTB4 to BLT1 (α)” value ([3]; as a whole (binding and shedding assays)) was ≤ 1.
